The target of assay [1] is T1, purified recombinant human JAK2 protein (Homo sapiens, UniProt O60674).
T1 construct: purchased Carna Biosciences, Inc
The assay can be described thus: Measurement of JAK2 kinase-inhibitory activity. The assay is classed as biochemical. The conditions noted are these: FL-Peptide 22 1 μM, ATP 10 μM, 25° C., 80 minutes. On the procedure:
2) Measurement of JAK2 Kinase-Inhibitory Activity
The activity of the compound of the present invention to inhibit the activity of JAK2 kinase was measured.
Among materials for the measurement of this inhibitory activity, a substrate peptide and a kinase protein were acquired as follows. As such a substrate peptide, FL-Peptide 22 (Perkin Elmer Corp.) was purchased. As such a kinase protein, a purified recombinant human JAK2 protein (Carna Biosciences, Inc.) was purchased.
The method for measuring the inhibitory activity is as follows. First, a serial dilution of the compound of the present invention was prepared by the same method as that described in the above section regarding JAK1. This serial dilution solution (the final concentration of DMSO upon a kinase reaction: 5.0%) or DMSO (final concentration: 5.0%) was mixed with a solution containing the substrate peptide (final concentration: 1 μM), magnesium chloride (final concentration: 10 mM) and ATP (final concentration: 10 μM) in a buffer for kinase reaction (15 mM Tris (pH 7.5), 2 mM dithiothreitol and 0.01% Tween 20). Thereafter, a JAK2 protein was further added to the mixed solution, and the obtained mixture was then incubated at 25° C. for 80 minutes to carry out a kinase reaction. To the reaction solution, EDTA was added to a final concentration of 30 mM, so as to terminate the reaction. After termination of the reaction, the measurement and the data analysis were carried out by the same methods as those described in the above section regarding JAK1.

In a further assay the test system is human PBMC. The assay can be described thus: IL-2-dependent growth of human peripheral blood mononuclear cells (PBMC). The settings on record: PHA-M pre-culture 3 days, IL-2 2 ng/mL, 2 days, CellTiter-Glo, read-out: PSMC IC50. It counts as cell-based. On the procedure:
The activity of the compound of the present invention to inhibit the IL-2-dependent growth reaction of human PBMC, which is caused by JAK3, was measured (Arthritis Rheum. 2010; 62(8): 2283-93).
With a medium containing 10 μg/mL PHA-M (Sigma) (which is RPI-1640 (Sigma) containing 10% human serum type AB (MP Biomedicals)), human PBMC (C.T.L.) (cell density: 1×10^6 cells/mL) was cultured at 37° C. in a culture vessel containing 5% carbon dioxide for 3 days. Thereafter, the culture was washed with RPMI-1640 four times, and a medium (RPMI-1640 containing 10% human serum type AB) was then added to the resultant culture to prepare a cell suspension. The cells (1×10^4 cells per well) and the serially diluted compound of the present invention were added to each well of a 96-well U-bottom microplate, and thus obtained mixture was then cultured at 37° C. in a culture vessel containing 5% carbon dioxide for 30 minutes. After completion of the culture, recombinant human IL-2 (Peprotech) was added to the culture to a final concentration of 2 ng/mL, and the obtained mixture was then stirred at 37° C. in a culture vessel containing 5% carbon dioxide for 2 days (1×10^4 cells/100 μl/each well). After completion of the culture, the resultant was left at a room temperature for 30 minutes, and 100 μl of CellTiter-Glo Luminescent Cell Viability Assay (Promega) was then added to the resultant, followed by stirring it. Thereafter, the reaction mixture was left for 10 minutes, and the amount of a luminescence derived from living cells in each well was then measured with a microplate reader (TECAN). The inhibition rate of the compound to the cell growth caused by IL-2 stimulation was calculated, and the concentration of the compound capable of inhibiting 50% of the cell growth was defined as an […] value (nM).
A general note: ATP-based viability assays read luminescence as a measure of living cells.

The values below come from US9676773B2, “Azaindole derivative” (TAIHO PHARMACEUTICAL CO., LTD., priority 2014, dated 2017).

Usually pIC50 stands for the negative decadic logarithm of the IC50, by convention in mol/L.

pIC50: −log10 of the molar value. Where only a bound is given, the exact number is not on record here.

T1 sequence (O60674 whole entry): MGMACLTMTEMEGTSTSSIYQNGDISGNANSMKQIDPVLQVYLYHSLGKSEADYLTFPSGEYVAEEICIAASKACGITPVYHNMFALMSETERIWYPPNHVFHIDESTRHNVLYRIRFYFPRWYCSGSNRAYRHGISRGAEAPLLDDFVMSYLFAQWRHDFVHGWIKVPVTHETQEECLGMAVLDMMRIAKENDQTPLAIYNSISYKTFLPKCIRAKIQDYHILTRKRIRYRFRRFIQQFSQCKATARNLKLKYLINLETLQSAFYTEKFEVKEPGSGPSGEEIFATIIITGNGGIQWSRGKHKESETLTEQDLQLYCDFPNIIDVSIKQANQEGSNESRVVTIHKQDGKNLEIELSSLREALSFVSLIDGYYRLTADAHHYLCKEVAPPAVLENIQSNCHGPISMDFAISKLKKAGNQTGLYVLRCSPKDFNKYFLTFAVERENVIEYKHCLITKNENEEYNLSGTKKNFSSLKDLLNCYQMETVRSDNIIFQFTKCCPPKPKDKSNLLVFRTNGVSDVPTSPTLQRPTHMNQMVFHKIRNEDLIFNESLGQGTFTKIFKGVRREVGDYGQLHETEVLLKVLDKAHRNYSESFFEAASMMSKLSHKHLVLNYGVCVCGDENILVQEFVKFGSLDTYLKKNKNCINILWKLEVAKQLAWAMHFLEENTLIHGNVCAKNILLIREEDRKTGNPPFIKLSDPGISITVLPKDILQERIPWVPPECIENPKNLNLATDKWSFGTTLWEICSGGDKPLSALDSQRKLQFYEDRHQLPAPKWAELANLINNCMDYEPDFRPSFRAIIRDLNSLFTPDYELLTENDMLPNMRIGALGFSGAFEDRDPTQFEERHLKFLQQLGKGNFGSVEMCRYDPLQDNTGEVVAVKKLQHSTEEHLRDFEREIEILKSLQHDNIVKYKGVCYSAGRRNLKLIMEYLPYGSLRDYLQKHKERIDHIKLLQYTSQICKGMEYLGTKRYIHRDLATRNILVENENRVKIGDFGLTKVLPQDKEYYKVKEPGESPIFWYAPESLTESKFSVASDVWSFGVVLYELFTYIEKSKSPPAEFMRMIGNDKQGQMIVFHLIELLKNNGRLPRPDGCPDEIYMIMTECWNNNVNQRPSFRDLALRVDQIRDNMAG

Turning to `C1=C(c2ccnc3[nH]ccc23)CCCC1` [Comparative Example 1, reference compound], the values for the negative logarithm of the IC50 (pIC50) (in assay [1]; in the assay on human PBMC) were 6.35 and < 5.52, respectively.
The matching figures for `C1=C(c2ccnc3[nH]ccc23)CCC1` [Comparative Example 2, 4-(Cyclopent-1-en-1-yl)-1H-pyrrolo[2,3-b]pyridine, reference compound]: 6.27 and < 5.52.
On to `Cc1nc(-c2c[nH]c3ncc(-c4ccccc4)cc23)cs1` [Comparative Example 3, 2-Methyl-4-(5-phenyl-1H-pyrrolo[2,3-b]pyridin-3-yl)thiazole, reference compound], for which the results for the pIC50 (in assay [1]; in the assay on human PBMC) were 5.80 and < 5.52, respectively.
The like results for `C=CC(=O)NC1CCC=C(c2ccnc3[nH]cc(-c4ccccc4)c23)C1` (stereo not drawn) [Compound 1, N-(3-(3-Phenyl-1H-pyrrolo[2,3-b]pyridin-4-yl)cyclohex-3-en-1-yl)acrylamide] were, in that order, 6.35 and 6.67.
The like results for `C=CC(=O)NC1CCC=C(c2ccnc3[nH]cc(-c4cn[nH]c4)c23)C1` (stereo not drawn) [Compound 3, N-(3-(3-(1H-Pyrazol-4-yl)-1H-pyrrolo[2,3-b]pyridin-4-yl)cyclohex-3-en-1-yl)acrylamide] were, in that order, 6.24 and 6.74.
The like results for `C=CC(=O)NC1CCC=C(c2ccnc3[nH]cc(-c4cccnc4OC)c23)C1` (stereo not drawn) [Compound 6, N-(3-(3-(2-Methoxypyridin-3-yl)-1H-pyrrolo[2,3-b]pyridin-4-yl)cyclohex-3-en-1-yl)acrylamide] were, in that order, 6.22 and 6.74.
On to `C=CC(=O)NC1CCC=C(c2ccnc3[nH]cc(-c4ccc(CO)o4)c23)C1` (stereo not drawn) [Compound 10, N-(3-(3-(5-(Hydroxymethyl)furan-2-yl)-1H-pyrrolo[2,3-b]pyridin-4-yl)cyclohex-3-en-1-yl)acrylamide], for which the figures for the negative-log IC50 (pIC50) (in assay [1]; with human PBMC) were 6.60 and 6.87, respectively.
The matching figures for `C=CC(=O)NC1CCC=C(c2ccnc3[nH]cc(-c4ccco4)c23)C1` (stereo not drawn) [Compound 12, N-(3-(3-(Furan-2-yl)-1H-pyrrolo[2,3-b]pyridin-4-yl)cyclohex-3-en-1-yl)acrylamide]: 6.30 and 6.91.
The like results for `C=CC(=O)NC1CCC=C(c2ccnc3[nH]cc(-c4cc(CO)co4)c23)C1` (stereo not drawn) [Compound 14, N-(3-(3-(4-(Hydroxymethyl)furan-2-yl)-1H-pyrrolo[2,3-b]pyridin-4-yl)cyclohex-3-en-1-yl)acrylamide] were, in that order, 6.23 and 6.94.
The matching figures for `C=CC(=O)NC1CCC=C(c2ccnc3[nH]cc(C4=CCOC4)c23)C1` (stereo not drawn) [Compound 34, N-(3-(3-(2,5-Dihydrofuran-3-yl)-1H-pyrrolo[2,3-b]pyridin-4-yl)cyclohex-3-en-1-yl)acrylamide]: 6.01 and 7.09.
On to `C=CC(=O)NC1CCC=C(c2ccnc3[nH]cc(-c4ccc(F)nc4)c23)C1` (stereo not drawn) [Compound 37, N-(3-(3-(6-Fluoropyridin-3-yl)-1H-pyrrolo[2,3-b]pyridin-4-yl)cyclohex-3-en-1-yl)acrylamide], for which the pIC50 is 5.62 in assay [1] and 6.80 in the assay with human PBMC.
The matching figures for `C=CC(=O)NC1CCC=C(c2ccnc3[nH]cc(-c4cnco4)c23)C1` (stereo not drawn) [Compound 48, N-(3-(3-(Oxazol-5-yl)-1H-pyrrolo[2,3-b]pyridin-4-yl)cyclohex-3-en-1-yl)acrylamide]: 6.15 and 6.94.
The like results for `C=CC(=O)NC1CCC=C(c2ccnc3[nH]cc(-c4nnco4)c23)C1` (stereo not drawn) [Compound 49, N-(3-(3-(1,3,4-Oxadiazol-2-yl)-1H-pyrrolo[2,3-b]pyridin-4-yl)cyclohex-3-en-1-yl)acrylamide] were, in that order, 6.01 and 6.91.
The matching figures for `C=CC(=O)NC1CCC=C(c2ccnc3[nH]cc(-c4nn(C)c(=O)o4)c23)C1` (stereo not drawn) [Compound 53, N-(3-(3-(4-Methyl-5-oxo-4,5-dihydro-1,3,4-oxadiazol-2-yl)-1H-pyrrolo[2,3-b]pyridin-4-yl)cyclohex-3-en-1-yl)acrylamide]: 6.00 and 6.79.
Turning to `C=CC(=O)NC1CCC=C(c2ccnc3[nH]cc(-c4nncs4)c23)C1` (stereo not drawn) [Compound 54], the pIC50 in assay [1] was 5.68; in the assay with human PBMC it was 6.77.
Consider `C=CC(=O)N[C@H]1CCC=C(c2ccnc3[nH]cc(-c4nnco4)c23)C1` [Compound 55, (S)—N-(3-(3-(1,3,4-Oxadiazol-2-yl)-1H-pyrrolo[2,3-b]pyridin-4-yl)cyclohex-3-en-1-yl)acrylamide], for which the results for the pIC50 (in assay [1]; in the assay with human PBMC) were 6.59 and 7.47, respectively.
The matching figures for `C=CC(=O)NC1CC=C(c2ccnc3[nH]cc(-c4nnco4)c23)C1` (stereo not drawn) [Compound 57, N-(3-(3-(1,3,4-Oxadiazol-2-yl)-1H-pyrrolo[2,3-b]pyridin-4-yl)cyclopent-3-en-1-yl)acrylamide]: 6.06 and 6.52.
The matching figures for `C=CC(=O)N[C@H]1CCC=C(c2ccnc3[nH]cc(-c4ccno4)c23)C1` [Compound 59]: 6.37 and 7.26.
